Measured values published in patent publication US20200188466A1, “COMPOSITIONS OF SCHISANDRA EXTRACTS AND METHODS THEREOF” (Reyoung Corporation, priority 2017, published 2020).
Read-outs that look alike come from different tables or passages of the source.

Assay: Plasma kinetic study of celastrol with and without Schisandrin A
Type: in vivo, Sprague Dawley rats
Settings: rats; for Cmax / Tmax / AUC(0-t) / AUC(0-inf) / MRT last / MRT inf / half-life: male, Sprague Dawley, rat, plasma, po, 1.8 mg/kg; for AUC(0-t): read-out: AUC0→t of celastrol; for AUC(0-inf): read-out: AUC0→∞ of celastrol; for MRT last: read-out: MRT0→t of celastrol; for MRT inf: read-out: MRT0→∞ of celastrol; for half-life: read-out: T1/2 of celastrol (converted)
Procedure: 42 Male Sprague Dawley rats (weight, 210-250 g) were maintained on a 12-hour light/dark cycle with free access to water and lab chow for 10-14 h prior to the experiment. Rats were randomly divided into 7 groups (n=6 each) and groups 2-7 received 0 mg/kg, 5.5 mg/kg, and 11.0 mg/kg, 22.0 mg/kg, 44.0 mg/kg and 88.0 mg/kg of Schisandrin A in 1% CMC-Na (300-800 cps) via oral administration, respectively. After 5 minutes, all the groups received 1.8 mg/kg of celastrol in a solution of 2% DMSO-98% sterile water via oral administration.
After celastrol treatment, blood samples were collected from individual rat at 0.25 h, 0.5 h, 1 h, 2 h, 4 h, 8 h, 12 h, 24 h, 36 h, and 48 h, respectively. Plasma was separated by centrifugation at 8000 rpm for 6 minutes at 4° C. and kept at −80° C. until analysis. Plasma homogenate was injected into LC-MS/MS for analysis.

[1] = Group1, celastrol 1.8 mg/kg oral, no Schisandrin A dose stated
[2] = Group2, Schisandrin A 0 mg/kg oral 5 min before celastrol 1.8 mg/kg oral
[3] = Group3, Schisandrin A 5.5 mg/kg oral 5 min before celastrol 1.8 mg/kg oral
[4] = Group4, Schisandrin A 11.0 mg/kg oral 5 min before celastrol 1.8 mg/kg oral
[5] = Group5, Schisandrin A 22.0 mg/kg oral 5 min before celastrol 1.8 mg/kg oral
[6] = Group6, Schisandrin A 44.0 mg/kg oral 5 min before celastrol 1.8 mg/kg oral
[7] = Group7, Schisandrin A 88.0 mg/kg oral 5 min before celastrol 1.8 mg/kg oral

For `CC1=C(O)C(=O)C=C2C1=CC=C1[C@@]2(C)CC[C@@]2(C)[C@@H]3C[C@](C)(C(=O)O)CC[C@]3(C)CC[C@]12C` [celastrol], the T1/2 of celastrol [1] was 10.07 ± 2.48 h, the Cmax [1] was 7.03 ± 2.65 ng/mL and the Tmax [1] was 5.33 ± 2.07 h. It also gave an AUC(0-t) [1] of 103 ± 28.2 ng·h/mL, an AUC(0-inf) [1] of 125 ± 22.4 ng·h/mL and an MRT last [1] of 12.1 ± 1.74 h. For the same compound, the MRT inf [1] was 12.1 ± 3.49 h, the Cmax [2] was 5.94 ± 1.38 ng/mL and the Tmax [2] was 4 h. For the same compound, the AUC(0-t) [2] was 93.2 ± 2.74 ng·h/mL, the AUC(0-inf) [2] was 107 ± 19.6 ng·h/mL and the MRT last [2] was 12 ± 1.82 h. It also gave an MRT inf [2] of 12 ± 2.33 h, a half-life [2] of 12.1 ± 1.77 h and a Cmax [3] of 7.13 ± 1.86 ng/mL. It also gave a Tmax [3] of 5.6 ± 3.58 h, an AUC(0-t) [3] of 117 ± 27.8 ng·h/mL and an AUC(0-inf) [3] of 124 ± 27.9 ng·h/mL. The MRT last [3] was 13.1 ± 2.27 h, the MRT inf [3] was 18.8 ± 8.57 h and the half-life [3] was 11.5 ± 5.18 h. For the same compound, the Cmax [4] was 7.08 ± 0.57 ng/mL, the Tmax [4] was 4 h and the AUC(0-t) [4] was 123 ± 20.1 ng·h/mL. It also gave an AUC(0-inf) [4] of 133 ± 20.1 ng·h/mL, an MRT last [4] of 12.9 ± 1.05 h and an MRT inf [4] of 15.7 ± 1.91 h. The half-life [4] was 9.1 ± 1.71 h, the Cmax [5] was 7.45 ± 2.72 ng/mL and the Tmax [5] was 9.33 ± 4.13 h. It also gave an AUC(0-t) [5] of 146 ± 48.4 ng·h/mL, an AUC(0-inf) [5] of 121 ± 31.7 ng·h/mL and an MRT last [5] of 14.2 ± 1.26 h. The MRT inf [5] was 16.9 ± 1.65 h, the half-life [5] was 10.3 ± 1.76 h and the Cmax [6] was 7.43 ± 3.47 ng/mL. For the same compound, the Tmax [6] was 10.7 ± 3.27 h, the AUC(0-t) [6] was 156 ± 68.5 ng·h/mL and the AUC(0-inf) [6] was 198 ± 94.4 ng·h/mL. For the same compound, the MRT last [6] was 14.9 ± 2.32 h, the MRT inf [6] was 33.1 ± 20.5 h and the half-life [6] was 23.8 ± 18 h. The Cmax [7] was 9.15 ± 6.48 ng/mL, the Tmax [7] was 6.67 ± 4.13 h and the AUC(0-t) [7] was 171 ± 99.1 ng·h/mL. For the same compound, the AUC(0-inf) [7] was 186 ± 108 ng·h/mL, the MRT last [7] was 14.2 ± 1.18 h and the MRT inf [7] was 16.7 ± 1.68 h. For the same compound, the half-life [7] was 9.29 ± 1.97 h.
